The record followed here is ChEMBL document CHEMBL1154464, “Constrained analogues of tocainide as potent skeletal muscle sodium channel blockers towards the development of antimyotonic agents” (Eur J Med Chem, 2008).

Each structure is given as a SMILES string.

Experiment [1] is described as follows: Blockade of Nav1.4 sodium channel in frog semitendinosus muscle fibres assessed as tonic block elicited by infrequent depolarizing pulses at a frequency of 0.3 Hz by vaseline-gap voltage clamp method. The class given is tissue-based, Pelophylax lessonae.
Experiment [2] can be described thus: Blockade of Nav1.4 sodium channel in frog semitendinosus muscle fibres assessed as phasic block at 10 Hz stimulation frequency by vaseline-gap voltage clamp method. The class given is tissue-based, Pelophylax lessonae.
The test system of experiment [3] is Pelophylax lessonae. The experiment can be described thus: Ratio of IC50 for tonic blockade of Nav1.4 sodium channel to phasic blockade of Nav1.4 sodium channel in frog semitendinosus muscle fibres. The format is tissue-based.

Consider `Cc1cccc(C)c1NC(=O)C1CN(Cc2ccccc2)CCN1` (configuration not stated), for which the values for the IC50 in experiment [1] and in experiment [2] were 31.6 µM and 2.4 µM, respectively. The Ratio IC50 in experiment [3] turned out to be 13.

For the molecule `Cc1cccc(C)c1NC(=O)C(C)N` (configuration not stated) [TOCAINIDE], the IC50 in experiment [1] was determined as 581 µM; in experiment [2] it was 273 µM.

Take `Cc1cccc(C)c1NC(=O)C1CCCN(Cc2ccccc2)C1` (configuration not stated): the IC50 in experiment [1] amounted to 38.5 µM; in experiment [2], 4.5 µM.
